Target: T1, Histone-lysine N-methyltransferase SETD7 (Homo sapiens, UniProt Q8WTS6)
T1 sequence (Q8WTS6 whole entry): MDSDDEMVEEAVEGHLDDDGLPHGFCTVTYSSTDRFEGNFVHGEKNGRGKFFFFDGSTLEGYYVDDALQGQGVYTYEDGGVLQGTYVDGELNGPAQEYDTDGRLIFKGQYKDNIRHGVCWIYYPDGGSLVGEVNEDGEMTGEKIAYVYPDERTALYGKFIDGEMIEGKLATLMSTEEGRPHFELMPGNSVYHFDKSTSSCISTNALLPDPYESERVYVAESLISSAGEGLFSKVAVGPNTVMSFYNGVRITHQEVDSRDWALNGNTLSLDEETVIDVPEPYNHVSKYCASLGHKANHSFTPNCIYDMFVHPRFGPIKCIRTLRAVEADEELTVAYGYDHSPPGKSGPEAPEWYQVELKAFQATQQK
Test: Inhibition of wildtype full length human SETD7 (1 to 366 residues) expressed in Escherichia coli BL21 (DE3) V2R-pRARE using biotinylated H3 (1-25) peptide as substrate incubated for 1 hrs in presence of 3H-SAM by radioactivity based assay

- IC50: 1000 nM
SMILES: O=C([C@H](Cc1cccc(C(F)(F)F)c1)NS(=O)(=O)c1cc(F)c2c(c1)CCNC2)N1CCCC1

From ChEMBL document CHEMBL5705898 (Proc Natl Acad Sci U S A, 2014)
